Data from ChEMBL document CHEMBL3885881, “DrugMatrix”.

Species: Rattus norvegicus
Assay: DrugMatrix - Regimen: Daily Repeat
Assay type: toxicity, organism-based, Sprague-Dawley
Design: regimen Daily Repeat, gender Male, age 6-8 weeks
Details: in vivo, po, route oral GAVAGE, […]; for ABSOLUTE BASOPHIL / ABSOLUTE EOSINOPHIL / ABSOLUTE LYMPHOCYTE / ABSOLUTE MONOCYTE / ABSOLUTE SEGMENTED NEUTROPHIL / BASOPHIL / EOSINOPHIL / ERYTHROCYTE COUNT / HEMATOCRIT / HEMOGLOBIN / LEUKOCYTE COUNT / LYMPHOCYTE / MEAN CORPUSCULAR HEMOGLOBIN / MEAN CORPUSCULAR HEMOGLOBIN CONCENTRATION / MEAN CORPUSCULAR VOLUME / MONOCYTE / NEUTROPHIL / NUCLEATED RED BLOOD CELLS / PLATELET COUNT: tissue Blood; for ALANINE AMINOTRANSFERASE / ALBUMIN / ALKALINE PHOSPHATASE / ASPARTATE AMINOTRANSFERASE / BLOOD UREA NITROGEN / CARBON DIOXIDE / CHLORIDE / CHOLESTEROL / CREATINE PHOSPHOKINASE / CREATININE / GLUCOSE / LACTATE DEHYDROGENASE / LIPASE / PHOSPHORUS / POTASSIUM / SODIUM / TOTAL BILIRUBIN / TOTAL PROTEIN / URIC ACID: tissue Plasma
[1] = 0 mg/kg, 72 h, dose level Control, time 3 day
[2] = 0 mg/kg, 120 h, dose level Control, time 5 day
[3] = 30 mg/kg, 72 h, dose level Low, time 3 day
[4] = 30 mg/kg, 120 h, dose level Low, time 5 day

SMILES: CS(=O)(=O)Nc1ccc([N+](=O)[O-])cc1Oc1ccccc1 [NIMESULIDE]
- ABSOLUTE BASOPHIL [1]: 0 CELLS/uL
- ABSOLUTE EOSINOPHIL [1]: 0 CELLS/uL
- ABSOLUTE LYMPHOCYTE [1]: 7601 CELLS/uL
- ABSOLUTE MONOCYTE [1]: 354.33 CELLS/uL
- ABSOLUTE SEGMENTED NEUTROPHIL [1]: 744.67 CELLS/uL
- BASOPHIL [1]: 0%
- EOSINOPHIL [1]: 0%
- ERYTHROCYTE COUNT [1]: 5.03 x10E6/uL
- HEMATOCRIT [1]: 33.7%
- HEMOGLOBIN [1]: 13.43 G/DL
- LEUKOCYTE COUNT [1]: 8.7 x10E3/uL
- LYMPHOCYTE [1]: 86.33%
- MEAN CORPUSCULAR HEMOGLOBIN [1]: 26.7 pg
- MEAN CORPUSCULAR HEMOGLOBIN CONCENTRATION [1]: 39.83 G/DL
- MEAN CORPUSCULAR VOLUME [1]: 67 fL
- MONOCYTE [1]: 4.67%
- NEUTROPHIL [1]: 9%
- NUCLEATED RED BLOOD CELLS [1]: 0 /100WBC
- PLATELET COUNT [1]: 1151 x10E3/uL
- ALANINE AMINOTRANSFERASE [1]: 97.67 u/L
- ALBUMIN [1]: 4.07 G/DL
- ALKALINE PHOSPHATASE [1]: 607.67 u/L
- ASPARTATE AMINOTRANSFERASE [1]: 101 u/L
- BLOOD UREA NITROGEN [1]: 13.33 mg/dL
- CARBON DIOXIDE [1]: 36 mmol/L
- CHLORIDE [1]: 99.67 MEQ/L
- CHOLESTEROL [1]: 75.67 mg/dL
- CREATINE PHOSPHOKINASE [1]: 279.67 u/L
- CREATININE [1]: 0.16 mg/dL
- GLUCOSE [1]: 164 mg/dL
- LACTATE DEHYDROGENASE [1]: 115 u/L
- LIPASE [1]: 12.67 u/L
- PHOSPHORUS [1]: 8.77 mg/dL
- POTASSIUM [1]: 5.79 MEQ/L
- SODIUM [1]: 142.83 MEQ/L
- TOTAL BILIRUBIN [1]: 0.27 mg/dL
- TOTAL PROTEIN [1]: 5.8 G/DL
- URIC ACID [1]: 0.67 mg/dL
- ABSOLUTE BASOPHIL [2]: 0 CELLS/uL
- ABSOLUTE EOSINOPHIL [2]: 0 CELLS/uL
- ABSOLUTE LYMPHOCYTE [2]: 4426.33 CELLS/uL
- ABSOLUTE MONOCYTE [2]: 102.67 CELLS/uL
- ABSOLUTE SEGMENTED NEUTROPHIL [2]: 337.67 CELLS/uL
- BASOPHIL [2]: 0%
- EOSINOPHIL [2]: 0%
- ERYTHROCYTE COUNT [2]: 5.31 x10E6/uL
- HEMATOCRIT [2]: 32.5%
- HEMOGLOBIN [2]: 13.17 G/DL
- LEUKOCYTE COUNT [2]: 4.87 x10E3/uL
- LYMPHOCYTE [2]: 90.33%
- MEAN CORPUSCULAR HEMOGLOBIN [2]: 24.93 pg
- MEAN CORPUSCULAR HEMOGLOBIN CONCENTRATION [2]: 40.67 G/DL
- MEAN CORPUSCULAR VOLUME [2]: 61.33 fL
- MONOCYTE [2]: 2.33%
- NEUTROPHIL [2]: 7.33%
- NUCLEATED RED BLOOD CELLS [2]: 0.33 /100WBC
- PLATELET COUNT [2]: 848.33 x10E3/uL
- ALANINE AMINOTRANSFERASE [2]: 59.67 u/L
- ALBUMIN [2]: 3.87 G/DL
- ALKALINE PHOSPHATASE [2]: 452 u/L
- ASPARTATE AMINOTRANSFERASE [2]: 81.33 u/L
- BLOOD UREA NITROGEN [2]: 13.67 mg/dL
- CARBON DIOXIDE [2]: 26.33 mmol/L
- CHLORIDE [2]: 103.67 MEQ/L
- CHOLESTEROL [2]: 65.67 mg/dL
- CREATINE PHOSPHOKINASE [2]: 355.33 u/L
- CREATININE [2]: 0.14 mg/dL
- GLUCOSE [2]: 171.33 mg/dL
- LACTATE DEHYDROGENASE [2]: 118 u/L
- LIPASE [2]: 11.33 u/L
- PHOSPHORUS [2]: 11.13 mg/dL
- POTASSIUM [2]: 5.18 MEQ/L
- SODIUM [2]: 143.17 MEQ/L
- TOTAL BILIRUBIN [2]: 0.2 mg/dL
- TOTAL PROTEIN [2]: 5.87 G/DL
- URIC ACID [2]: 0.63 mg/dL
- ABSOLUTE BASOPHIL [3]: 0 CELLS/uL
- ABSOLUTE EOSINOPHIL [3]: 25.33 CELLS/uL
- ABSOLUTE LYMPHOCYTE [3]: 7491.33 CELLS/uL
- ABSOLUTE MONOCYTE [3]: 125 CELLS/uL
- ABSOLUTE SEGMENTED NEUTROPHIL [3]: 858.33 CELLS/uL
- BASOPHIL [3]: 0%
- EOSINOPHIL [3]: 0.33%
- ERYTHROCYTE COUNT [3]: 5.1 x10E6/uL
- HEMATOCRIT [3]: 33.1%
- HEMOGLOBIN [3]: 12.87 G/DL
- LEUKOCYTE COUNT [3]: 8.5 x10E3/uL
- LYMPHOCYTE [3]: 88%
- MEAN CORPUSCULAR HEMOGLOBIN [3]: 25.23 pg
- MEAN CORPUSCULAR HEMOGLOBIN CONCENTRATION [3]: 38.87 G/DL
- MEAN CORPUSCULAR VOLUME [3]: 64.93 fL
- MONOCYTE [3]: 1.33%
- NEUTROPHIL [3]: 10.33%
- NUCLEATED RED BLOOD CELLS [3]: 0 /100WBC
- PLATELET COUNT [3]: 1037.67 x10E3/uL
- ALANINE AMINOTRANSFERASE [3]: 125.67 u/L
- ALBUMIN [3]: 4.17 G/DL
- ALKALINE PHOSPHATASE [3]: 434 u/L
- ASPARTATE AMINOTRANSFERASE [3]: 117 u/L
- BLOOD UREA NITROGEN [3]: 11 mg/dL
- CARBON DIOXIDE [3]: 35 mmol/L
- CHLORIDE [3]: 106.33 MEQ/L
- CHOLESTEROL [3]: 78 mg/dL
- CREATINE PHOSPHOKINASE [3]: 456.33 u/L
- CREATININE [3]: 0.28 mg/dL
- GLUCOSE [3]: 158.67 mg/dL
- LACTATE DEHYDROGENASE [3]: 119.33 u/L
- LIPASE [3]: 11 u/L
- PHOSPHORUS [3]: 8.8 mg/dL
- POTASSIUM [3]: 5.65 MEQ/L
- SODIUM [3]: 146.27 MEQ/L
- TOTAL BILIRUBIN [3]: 0.13 mg/dL
- TOTAL PROTEIN [3]: 5.7 G/DL
- URIC ACID [3]: 0.63 mg/dL
- ABSOLUTE BASOPHIL [4]: 0 CELLS/uL
- ABSOLUTE EOSINOPHIL [4]: 83.33 CELLS/uL
- ABSOLUTE LYMPHOCYTE [4]: 10811.33 CELLS/uL
- ABSOLUTE MONOCYTE [4]: 335.67 CELLS/uL
- ABSOLUTE SEGMENTED NEUTROPHIL [4]: 1536.33 CELLS/uL
- BASOPHIL [4]: 0%
- EOSINOPHIL [4]: 0.33%
- ERYTHROCYTE COUNT [4]: 5.57 x10E6/uL
- HEMATOCRIT [4]: 36.37%
- HEMOGLOBIN [4]: 13.93 G/DL
- LEUKOCYTE COUNT [4]: 12.77 x10E3/uL
- LYMPHOCYTE [4]: 87.33%
- MEAN CORPUSCULAR HEMOGLOBIN [4]: 25 pg
- MEAN CORPUSCULAR HEMOGLOBIN CONCENTRATION [4]: 38.33 G/DL
- MEAN CORPUSCULAR VOLUME [4]: 65.23 fL
- MONOCYTE [4]: 2.33%
- NEUTROPHIL [4]: 10%
- NUCLEATED RED BLOOD CELLS [4]: 0 /100WBC
- PLATELET COUNT [4]: 1176 x10E3/uL
- ALANINE AMINOTRANSFERASE [4]: 52 u/L
- ALBUMIN [4]: 4.27 G/DL
- ALKALINE PHOSPHATASE [4]: 326 u/L
- ASPARTATE AMINOTRANSFERASE [4]: 65.67 u/L
- BLOOD UREA NITROGEN [4]: 16 mg/dL
- CARBON DIOXIDE [4]: 24.67 mmol/L
- CHLORIDE [4]: 108.33 MEQ/L
- CHOLESTEROL [4]: 74.67 mg/dL
- CREATINE PHOSPHOKINASE [4]: 187 u/L
- CREATININE [4]: 0.16 mg/dL
- GLUCOSE [4]: 176.33 mg/dL
- LACTATE DEHYDROGENASE [4]: 75.67 u/L
- LIPASE [4]: 10.33 u/L
- PHOSPHORUS [4]: 10.53 mg/dL
- POTASSIUM [4]: 4.45 MEQ/L
- SODIUM [4]: 149.7 MEQ/L
- TOTAL BILIRUBIN [4]: 0.1 mg/dL
- TOTAL PROTEIN [4]: 6.33 G/DL
- URIC ACID [4]: 0.6 mg/dL
